Assay results as given in patent US3935309A, “Synergistic combinations of phosphonomycin and bacteriostatic agents” (Merck & Co., Inc., priority 1974, dated 1976).
Like-named read-outs stand apart in the source and are kept apart here.

What was measured:
Staphylococcus aureus [1] = experiment: criss-cross MIC method in nutrient broth (Example 2); assay type: cell-based; conditions: 37°C, 24 hours, two experiments on different days
Experimental: This method involved the simultaneous determination of the MIC (minimum inhibitory concentration) of each member of a pair of antibiotics and of combinations of the two in nutrient broth (NB) containing 0.2% yeast extract (YE). Serial two-fold dilutions were made throughout the experiment, and the starting inoculum consisted of approximately 25,000 cells/ml. of Staphylococcus aureus. Incubation was at 37°C. for 24 hours. Identical experiments were performed on two different days.

Escherichia coli 2017 = experiment: Combined antibiotic therapy of Escherichia coli infection in mice (Example 5); assay type: in vivo, mice infected with Escherichia coli 2017; design: ED50: unit not given beside the values; conditions: for ED50 / % of effective dose: first test
From the text: (§1) For example, using Escherichia coli 2017 as the infecting agent, sodium phosphonomycin was titrated alone and in the presence 5 and also in the presence of 0.5γtetracycline, while tetracycline was titrated alone and in the presence of 50γ, and also in the presence of 5γof sodium phosphonomycin. The two drugs were given by the subcutaneous route at separate sites on the ventral surface of the mouse. Such therapy was given only at the time of infection for the Escherichia coli and Pseudomonas aeruginosa tests but both at the time of infection and 6 hours later for all other tests. Infection was given intraperitoneally using broth suspensions of the test organism.

Proteus vulgaris = experiment: MIC by two-fold serial broth dilution, alone and in combination (Example 1); assay type: cell-based; conditions: for MIC: Proteus vulgaris, read-out: MIC of 2nd Subst.
Experimental: (§2) The MIC (minimum inhibitory concentration) of phosphonomycin and each of the other antibiotics by itself was determined before the combination synergy experiment was begun, as follows: 2 ml. of a double strength solution in sterile distilled water of the highest strength to be tested (usually 1000γ) was added to a tube of double strength nutrient broth (NB) and mixed thoroughly. Two-fold serial dilutions were then made by transferring 2 ml. to the next tube (1 × NB) and so on for approximately 12 tubes. The tubes were inoculated with one drop each of a 1:50 dilution of a culture adjusted to a Lumetron 60 reading in NB + 0.2% yeast extract so as to provide a concentration of cells of approximately 25,000/ml. The tubes were then incubated at 37°C. and examined for growth at 24, 48 and 72 hours.
(§3) In the combination experiment, the MIC value obtained as described above was used as approximately the midpoint of the range to be tested for each of the two antibiotics of the combination. In a manner similar to the above, two-fold dilutions of the first substance in the combination were made except that 1.8 ml. volumes were used and a 2.2 × strength solution of both the antibiotic and the NB were made. The second antibiotic of the combination was added to duplicate rows of serial dilutions of the first substance as follows: 0.2 ml. in NB of a [formula] and a [formula] respectively, of the second substance was added to each tube in a row of serial dilutions of the first antibiotic. The final concentration that resulted enabled the determination of the effect of both MIC/4 and MIC/8 of each substance in the presence of from approximately 32 MIC to [formula] of the other. Inocula were added as in the initial single MIC experiment.

Streptococcus faecalis = experiment: as above; assay type: cell-based; conditions: for MIC: Enterococcus faecalis, read-out: MIC of 2nd Subst.
Experimental: as §2, §3

pathogenic bacteria = experiment: in vitro combination tests with various pathogens (general description); assay type: cell-based; conditions: for potentiation when combined with phosphonomycin: various strains of pathogenic bacteria
From the text: Other experimental results have shown that novobiocin, chlortetracycline and sulfisoxazole are potentiated when combined with phosphonomycin and tested with various strains of pathogenic bacteria.

Staphylococcus aureus [2] = experiment: MIC by two-fold serial broth dilution, alone and in combination (Example 1); assay type: cell-based; conditions: for MIC: Staphylococcus aureus, read-out: MIC of 2nd Subst.
Experimental: as §2, §3

Pseudomonas aeruginosa = experiment: as above; assay type: cell-based; conditions: for MIC: Pseudomonas aeruginosa, read-out: MIC of 2nd Subst.
Experimental: as §2, §3

[3] = test system: Pseudomonas aeruginosa 3210; experiment: Combined antibiotic therapy of experimental infection in mice (Example 5); assay type: in vivo, mice infected with Pseudomonas aeruginosa 3210; conditions: for s.c. ED50: 10 LD50
From the text: as §1

Pseudomonas stutzeri = experiment: MIC by two-fold serial broth dilution, alone and in combination (Example 1); assay type: cell-based
Experimental: as §2, §3

Klebsiella pneumoniae = experiment: as above; assay type: cell-based
Experimental: as §2, §3

[4] = test system: Klebsiella pneumoniae "B"; experiment: Combined antibiotic therapy of experimental infection in mice (Example 5); assay type: in vivo, mice infected with Klebsiella pneumoniae "B"; conditions: for s.c. ED50: 7 LD50
From the text: as §1

[5] = test system: Streptococcus pyogenes 3009; experiment: as above; assay type: in vivo, mice infected with Streptococcus pyogenes 3009; conditions: 6 LD50
From the text: as §1

[6] = chloramphenicol repeat test, 7 LD50, chloramphenicol titrated, phosphonomycin constant 5
[7] = chloramphenicol repeat test, 7 LD50, chloramphenicol titrated, phosphonomycin constant 50
[8] = chloramphenicol test 1, 9 LD50, chloramphenicol titrated, phosphonomycin constant 10
[9] = chloramphenicol test 1, 9 LD50, chloramphenicol titrated, phosphonomycin constant 100
[10] = in presence of MIC/2 instead of ≤ MIC/4
[11] = novobiocin itself, at the levels tested
[12] = alone, therapy at 0 and 6 hours, phosphonomycin as sodium salt
[13] = tetracycline titrated, phosphonomycin constant 500
[14] = tetracycline titrated, phosphonomycin constant 1000
[15] = combination of 54% tetracycline with .5% sodium phosphonomycin
[16] = phosphonomycin titrated in the presence of 0.5γ tetracycline
[17] = tetracycline titrated in the presence of 50γ sodium phosphonomycin
[18] = tetracycline repeat test, 7 LD50, tetracycline titrated, phosphonomycin constant 0.5
[19] = tetracycline repeat test, 7 LD50, tetracycline titrated, phosphonomycin constant 50
[20] = tetracycline test 1, 9 LD50, alone
[21] = tetracycline test 1, 9 LD50, tetracycline titrated, phosphonomycin constant 5
[22] = tetracycline test 1, 9 LD50, tetracycline titrated, phosphonomycin constant 50

O=C(N[C@H](CO)[C@H](O)c1ccc([N+](=O)[O-])cc1)C(Cl)Cl [Chloramphenicol]
MIC (Staphylococcus aureus [1]; Staphylococcus aureus, 24 h, read-out: CLM MIC, alone): 7.8 µg/mL
CLM MIC (Staphylococcus aureus [1]; alone, listed as CLM): 3.9 µg/mL
% ED50 (Escherichia coli 2017; chloramphenicol repeat test, 7 LD50, alone): 100%
s.c. ED50 (Escherichia coli 2017; chloramphenicol repeat test, 7 LD50, alone, single dose at 0 hour, phosphonomycin as sodium salt): 120 µg
% ED50 (Escherichia coli 2017; [6]): 39%
s.c. ED50 (Escherichia coli 2017; [6]): 47 µg
% ED50 (Escherichia coli 2017; [7]): 17%
s.c. ED50 (Escherichia coli 2017; [7]): 20 µg
% ED50 (Escherichia coli 2017; chloramphenicol repeat test, 7 LD50, phosphonomycin titrated, chloramphenicol constant 5): 4%
% ED50 (Escherichia coli 2017; chloramphenicol repeat test, 7 LD50, phosphonomycin titrated, chloramphenicol constant 50): 42%
% ED50 (Escherichia coli 2017; chloramphenicol test 1, 9 LD50, alone): 100%
% ED50 (Escherichia coli 2017; [8]): 55%
s.c. ED50 (Escherichia coli 2017; [8]): 250 µg
% ED50 (Escherichia coli 2017; [9]): 24%
s.c. ED50 (Escherichia coli 2017; [9]): 107 µg
% ED50 (Escherichia coli 2017; chloramphenicol test 1, 9 LD50, phosphonomycin titrated, chloramphenicol constant 3): 1%
% ED50 (Escherichia coli 2017; chloramphenicol test 1, 9 LD50, phosphonomycin titrated, chloramphenicol constant 30): 7%

CN(C)[C@@H]1C(O)=C(C(N)=O)C(=O)[C@@]2(O)C(O)=C3C(=O)c4c(O)ccc(Cl)c4[C@@](C)(O)[C@H]3C[C@@H]12 [Chlortetracycline]
MIC of 2nd Subst. in presence of ≤ MIC/4 of phosphonomycin (Proteus vulgaris): 0.25
MIC (Proteus vulgaris): 2 µg/mL
MIC of 2nd Subst. in presence of ≤ MIC/4 of phosphonomycin (Streptococcus faecalis): 0.5
MIC (Streptococcus faecalis): 0.5 µg/mL
potentiation when combined with phosphonomycin (pathogenic bacteria): potentiated

CC[C@H]1OC(=O)[C@H](C)[C@@H](O[C@H]2C[C@@](C)(OC)[C@@H](O)[C@H](C)O2)[C@H](C)[C@@H](O[C@@H]2O[C@H](C)C[C@H](N(C)C)[C@H]2O)[C@](C)(O)C[C@@H](C)C(=O)[C@H](C)[C@@H](O)[C@]1(C)O [Erythromycin]
MIC of 2nd Subst. in presence of ≤ MIC/4 of phosphonomycin (Staphylococcus aureus [2]): 2
MIC (Staphylococcus aureus [2]): 8 µg/mL
MIC (Proteus vulgaris): 1000 µg/mL
MIC of 2nd Subst. in presence of phosphonomycin (Proteus vulgaris; [10]): 500 µg/mL
MIC of 2nd Subst. in presence of ≤ MIC/4 of phosphonomycin (Streptococcus faecalis): 16
MIC (Streptococcus faecalis): 32 µg/mL
MIC (Pseudomonas aeruginosa): > 16000 µg/mL
MIC of 2nd Subst. in presence of ≤ MIC/4 of phosphonomycin (Pseudomonas aeruginosa; resistant growth present): 2000

CO[C@@H]1[C@@H](OC(N)=O)[C@@H](O)[C@H](Oc2ccc3c(O)c(NC(=O)c4ccc(O)c(CC=C(C)C)c4)c(=O)oc3c2C)OC1(C)C [Novobiocin]
s.c. ED50 ([3]; alone, therapy at 0 hour only, phosphonomycin as sodium salt): > 10000 µg
s.c. ED50 ([3]; novobiocin titrated, phosphonomycin > 20): > 10000 µg
s.c. ED50 ([3]; novobiocin with phosphonomycin >200): > 10000 µg
protection of mice [3, 11]: did not protect
MIC (Staphylococcus aureus [2]): 0.06 µg/mL
MIC of 2nd Subst. in presence of phosphonomycin (Staphylococcus aureus [2]; [10]): 0.015 µg/mL
MIC of 2nd Subst. in presence of ≤ MIC/4 of phosphonomycin (Proteus vulgaris): 3.9
MIC (Proteus vulgaris): 32 µg/mL
MIC of 2nd Subst. in presence of ≤ MIC/4 of phosphonomycin (Pseudomonas stutzeri): 8
MIC (Pseudomonas stutzeri; Stutzerimonas stutzeri, alone, read-out: MIC of 2nd Subst.): 32 µg/mL
MIC of 2nd Subst. in presence of ≤ MIC/4 of phosphonomycin (Klebsiella pneumoniae): < 2
MIC (Klebsiella pneumoniae; Klebsiella pneumoniae, alone, read-out: MIC of 2nd Subst.): 32 µg/mL
MIC of 2nd Subst. in presence of ≤ MIC/4 of phosphonomycin (Streptococcus faecalis): 4
MIC (Streptococcus faecalis): 4 µg/mL
MIC of 2nd Subst. in presence of ≤ MIC/4 of phosphonomycin (Pseudomonas aeruginosa): 62.5
MIC (Pseudomonas aeruginosa): 250 µg/mL
s.c. ED50 [4, 12]: > 2500 µg
s.c. ED50 ([4]; novobiocin titrated, phosphonomycin > 100): > 2500 µg
s.c. ED50 ([4]; novobiocin with phosphonomycin > 10): > 2500 µg
protection of mice [4, 11]: did not protect
control of pathogens by combination with phosphonomycin (pathogenic bacteria): effective in controlling pathogens which cannot be effectively controlled by either antibiotic separately
potentiation when combined with phosphonomycin (pathogenic bacteria): potentiated

CN(C)C1C(=O)C(C(N)=O)=C(O)C2(O)C(=O)C3=C(O)c4c(O)cccc4C(C)(O)C3CC12 (stereo not drawn) [Tetracycline]
% ED50 ([5]; alone): 100%
s.c. ED50 [5, 12]: 55 µg
% ED50 [5, 13]: 36%
s.c. ED50 [5, 13]: 35 µg
% ED50 [5, 14]: 33%
s.c. ED50 [5, 14]: 18 µg
ED50 (Escherichia coli 2017; alone): 50 γ
% of effective dose (Escherichia coli 2017; [15]): 54%
% of effective dose (Escherichia coli 2017; [16]): 1%
% of effective dose (Escherichia coli 2017; [17]): 25%
ED50 (Escherichia coli 2017; titrated in the presence of 50γ sodium phosphonomycin): 13 γ
% ED50 (Escherichia coli 2017; tetracycline repeat test, 7 LD50, alone): 100%
s.c. ED50 (Escherichia coli 2017; tetracycline repeat test, 7 LD50, alone, single dose at 0 hour, phosphonomycin as sodium salt): 31 µg
% ED50 (Escherichia coli 2017; tetracycline repeat test, 7 LD50, phosphonomycin titrated, tetracycline constant 1): 3%
% ED50 (Escherichia coli 2017; tetracycline repeat test, 7 LD50, phosphonomycin titrated, tetracycline constant 10): 32%
% ED50 (Escherichia coli 2017; [18]): 23%
s.c. ED50 (Escherichia coli 2017; [18]): 7 µg
% ED50 (Escherichia coli 2017; [19]): 100%
s.c. ED50 (Escherichia coli 2017; [19]): 31 µg
% ED50 (Escherichia coli 2017; [20]): 100%
% ED50, Combined % (Escherichia coli 2017; [20]): 100%
s.c. ED50 (Escherichia coli 2017; tetracycline test 1, 9 LD50, alone, single dose at 0 hour, phosphonomycin as sodium salt): 50 µg
% ED50 (Escherichia coli 2017; tetracycline test 1, 9 LD50, phosphonomycin titrated, tetracycline constant 0.5): 1%
% ED50 (Escherichia coli 2017; tetracycline test 1, 9 LD50, phosphonomycin titrated, tetracycline constant 5): 10%
% ED50 (Escherichia coli 2017; [21]): 54%
s.c. ED50 (Escherichia coli 2017; [21]): 27 µg
% ED50 (Escherichia coli 2017; [22]): 25%
s.c. ED50 (Escherichia coli 2017; [22]): 13 µg
enhancement of tetracycline activity (Escherichia coli 2017; two tests, constant quantity of sodium phosphonomycin): enhanced

C[C@@H]1O[C@@H]1P(=O)(O)O [sodium phosphonomycin]
ED50 (Escherichia coli 2017; alone): 1000 γ
% of effective dose (Escherichia coli 2017; [15]): .5%
% of effective dose (Escherichia coli 2017; [16]): 100%
% of effective dose (Escherichia coli 2017; [17]): 5%
ED50 (Escherichia coli 2017; titrated in the presence of 0.5γ tetracycline): 1000 γ
enhancement of sodium phosphonomycin activity (Escherichia coli 2017; two tests, constant quantity of tetracycline): In neither test did a constant quantity of tetracycline enhance sodium phosphonomycin activity
interaction of combination ([4]; 1 mg. of novobiocin included in the dose): could be considered as potentiation
sodium phosphonomycin required to protect the mice ([4]; 1 mg. of novobiocin included in the dose vs its absence): less sodium phosphonomycin was required to protect the mice

Cc1noc(NS(=O)(=O)c2ccc(N)cc2)c1C [sulfisoxazole]
potentiation when combined with phosphonomycin (pathogenic bacteria): potentiated
